Assay results taken from patent US20260263593A1, “ALLERGY ANTIGEN AND EPITOPE THEREOF” (HOYU CO., LTD., priority 2018, published 2026).

Tested on: IgE antibody present in the serum of a shrimp-allergic patient
Assay: Epitope mapping (1): array of overlapping 15-amino-acid peptides, chemiluminescence
Type: binding, human
Conditions: 15-amino-acid peptide array; serum of 37 patients; difference from N2nd value of 5 non-shrimp-allergic subjects at least 35,000
Description: Epitope mapping was carried out using a library of overlapping peptides (length: 15 amino acids) corresponding to the amino acid sequences identified as allergy components of shrimp and the amino acid sequence of arginine kinase. Specifically, the library of overlapping peptides was prepared on the basis of the amino acid sequences of SEQ ID NOs: 117, 141, 146, 2, 45, 87, 276, 161, 230, 179, 362, 381, 399, 421, 455, 481, 486, 520, 541, 300 and 306, and arginine kinase.
The peptides to be synthesized were shifted by 10 amino acids.
For preparation of peptide arrays, the Intavis CelluSpots™ technique was used. Specifically, the peptide arrays were prepared by the following procedure: (1) synthesizing peptides of interest on amino-modified cellulose disks using an automated chemical synthesis apparatus (Intavis MultiPep RS), (2) dissolving the amino-modified cellulose disks to obtain a cellulose-bound peptide solution, and (3) spotting the cellulose-bound peptides onto coated glass slides. The details of each procedure are as described below.
Peptide synthesis was carried out in incremental steps through 9-fluorenylmethoxycarbonyl (Fmoc) chemical reaction on amino-modified cellulose disks in 384-well synthesis plates. Specifically, amino acids in which a Fmoc group is bonded to an amino group were activated in a solution of N,N′-diisopropylcarbodiimide (DIC) and 1-hydroxybenzotriazole (HOBt) in dimethylformamide (DMF) and added dropwise to the cellulose disks so that the Fmoc group-bound amino acids were bound to the amino groups on the cellulose disks (coupling). Unreacted amino groups were capped with acetic anhydride and washed with DMF. Furthermore, the Fmoc groups were eliminated from the amino groups of the amino acids bound to the amino groups on the cellulose disks by treatment with piperidine and washing with DMF. The amino acids bound to the amino groups on the cellulose disks were repetitively subjected to the coupling, the capping, and the Fmoc group elimination described above to elongate the amino terminus for peptide synthesis.
The peptides-bound cellulose disks of interest obtained above in the subsection titled “(1) Synthesis of peptide” were transferred to 96-well plates and treated with a side chain deprotection mixed solution of trifluoroacetic acid (TFA), dichloromethane, triisopropylsilane (TIPS), and water for deprotection of amino acid side chains. Then, the deprotected cellulose-bound peptides were dissolved in a mixed solution of TFA, trifluoromethanesulfonic acid (TFMSA), TIPS, and water and precipitated in tetrabutyl methyl ether (TBME), and the precipitate was resuspended in dimethyl sulfoxide (DMSO) and mixed with a mixed solution of NaCl, sodium citrate, and water to obtain a peptide solution for slide spotting.
The peptide solution for slide spotting obtained above in the subsection titled “(2) Dissolution of amino-modified cellulose disk” was spotted onto Intavis CelluSpots™ slides using Intavis Slide Spotting Robot, and the slides were dried to prepare peptide arrays.
The presence or absence of binding, to each peptide fragment, of an IgE antibody present in the serum of a shrimp-allergic patient was measured through antigen-antibody reaction using the peptide arrays. […]

| Substance | Peptide bound to an IgE antibody in serum in a patient-specific manner |
| --- | --- |
| E6: common 15-residue IgE-binding epitope sequence of polypeptide (E6), myosin heavy chain type 2-derived (KDHQIRNINDEISHQ; VAR_SEQ 1..15 epitope) [Epitope E6] | bound to an IgE antibody in serum in a patient-specific manner |
| E33: common 15-residue IgE-binding epitope sequence of polypeptide (E33), myosin heavy chain type 1-derived (TKPYDPKKSCWVPDD; VAR_SEQ 1..15 epitope) [Epitope E33] | bound to an IgE antibody in serum in a patient-specific manner |
| E12: common 15-residue IgE-binding epitope sequence of polypeptide (E12), glycogen phosphorylase-derived (LPEALERWPTSMLEH; VAR_SEQ 1..15 epitope) [Epitope E12] | bound to an IgE antibody in serum in a patient-specific manner |
| E28: common 15-residue IgE-binding epitope sequence of polypeptide (E28), myosin heavy chain type 1-derived (RGYHIFYQLMCDQID; VAR_SEQ 1..15 epitope) [Epitope E28] | bound to an IgE antibody in serum in a patient-specific manner |
| E5: common 15-residue IgE-binding epitope sequence of polypeptide (E5), myosin heavy chain type 2-derived (GTMEELRDERLAKII; VAR_SEQ 1..15 epitope) [Epitope E5] | bound to an IgE antibody in serum in a patient-specific manner |
| E13: common 15-residue IgE-binding epitope sequence of polypeptide (E13), glycogen phosphorylase-derived (EWVVHLDQLTKLKPL; VAR_SEQ 1..15 epitope) [Epitope E13] | bound to an IgE antibody in serum in a patient-specific manner |
| E1: common 15-residue IgE-binding epitope sequence of polypeptide (E1), myosin heavy chain type 1-derived (ADIEVYLLEKARVIS; VAR_SEQ 1..15 epitope) [Epitope E1] | bound to an IgE antibody in serum in a patient-specific manner |
| E14: common 15-residue IgE-binding epitope sequence of polypeptide (E14), hemocyanin subunit L1-derived (ERGIDVLGDVIESSL; VAR_SEQ 1..15 epitope) [Epitope E14] | bound to an IgE antibody in serum in a patient-specific manner |
| E40: common 15-residue IgE-binding epitope sequence of polypeptide (E40), myosin heavy chain type 1-derived (EISHQDEIINKVNKE; VAR_SEQ 1..15 epitope) [Epitope E40] | bound to an IgE antibody in serum in a patient-specific manner |
| E7: common 15-residue IgE-binding epitope sequence of polypeptide (E7), myosin heavy chain type 2-derived (AKSAMDSLARDKALA; VAR_SEQ 1..15 epitope) [Epitope E7] | bound to an IgE antibody in serum in a patient-specific manner |
| E9: common 15-residue IgE-binding epitope sequence of polypeptide (E9), myosin heavy chain type 2-derived (DQLATELDASQKECR; VAR_SEQ 1..15 epitope) [Epitope E9] | bound to an IgE antibody in serum in a patient-specific manner |
| E22: common 15-residue IgE-binding epitope sequence of polypeptide (E22), cyclophilin A-derived (VMELRADVVPKTAEN; VAR_SEQ 1..15 epitope) [Epitope E22] | bound to an IgE antibody in serum in a patient-specific manner |
